Measured values from patent US7462647B2, “Pentalfluoroalkanesulfinyl naphthalenes and related estrogen receptor modulators” (Eli Lilly and Company, priority 2003, dated 2008).

Assays:
[1] = molecular target: T1, ERAlpha receptor (Homo sapiens, UniProt P03372); assay: Competition binding assay, 3H-Estradiol, ER alpha; settings: IC50 converted to Ki using Cheng-Prusoff equation
T1 construct: purchased PanVera
T1 sequence (P03372 1-595): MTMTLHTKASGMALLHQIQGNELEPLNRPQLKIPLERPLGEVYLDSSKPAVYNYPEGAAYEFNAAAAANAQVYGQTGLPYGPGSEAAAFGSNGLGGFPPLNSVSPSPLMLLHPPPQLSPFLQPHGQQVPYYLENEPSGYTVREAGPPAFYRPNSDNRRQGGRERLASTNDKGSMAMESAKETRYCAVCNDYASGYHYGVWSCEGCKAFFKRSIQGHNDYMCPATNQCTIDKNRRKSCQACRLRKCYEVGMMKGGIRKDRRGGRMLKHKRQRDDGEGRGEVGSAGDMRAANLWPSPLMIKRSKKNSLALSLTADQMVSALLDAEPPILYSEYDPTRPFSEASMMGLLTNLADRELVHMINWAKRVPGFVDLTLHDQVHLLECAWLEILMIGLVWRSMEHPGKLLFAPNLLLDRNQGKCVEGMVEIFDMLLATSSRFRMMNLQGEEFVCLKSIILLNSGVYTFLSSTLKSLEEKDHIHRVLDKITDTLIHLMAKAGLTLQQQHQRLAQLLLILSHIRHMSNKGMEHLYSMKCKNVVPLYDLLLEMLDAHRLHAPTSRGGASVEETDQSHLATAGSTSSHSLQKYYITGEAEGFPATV
Procedure: (§1) Competition binding assay is run in a buffer containing 50 mM Hepes, pH 7.5, 1.5 mM EDTA, 150 mM NaCl, 10% glycerol, 1 mg/ml ovalbumin and 5 mM DTT, using 0.025 μCi per well ^3H-Estradiol(NEN #NET517 at […], 1 mCi/ml), 10 ng/well ERAlpha or ERbeta receptor (PanVera). Competing compounds are added at 10 different concentrations. Non-specific binding is determined in the presence of 1 μM of 17-B Estradiol. The binding reaction (140 μl) is incubated for 4 hours at room temperature, then 70 μl of cold DCC buffer is added to each reaction (DCC buffer contains per 50 ml of assay buffer, 0.75 g of charcoal (Sigma) and 0.25 g of dextran (Pharmacia)). Plates are mixed 8 minutes on an orbital shaker at 4° C. Plates are then centrifuged at 3,000 rpm at 4° C. for 10 minutes. An aliquot of 120 μl of the mix is transferred to another 96-well, white flat bottom plate (Costar) and 175 μl of Wallac Optiphase “Hisafe 3” scintillation fluid is added to each well. Plates are sealed and shaken vigorously on an orbital shaker. After an incubation of 2.5 hrs, read plates in a Wallac Microbeta counter. The data is used to calculate an IC50 and % Inhibition at 10 μM. The Kd for ^3H-Estradiol is determined by saturation binding to ER alpha and ER beta receptors. The IC50 values for compounds are converted to K; using Cheng-Prusoff equation and the Kd determined by saturation binding assay.

[2] = molecular target: T2, ERbeta receptor (Homo sapiens, UniProt Q92731); assay: Competition binding assay, 3H-Estradiol, ER beta; settings: IC50 converted to Ki using Cheng-Prusoff equation; read-out: Binding ER b Ki
T2 construct: purchased PanVera
Procedure: as §1

[3] = tested on: MCF-7 breast adenocarcinoma cells; assay: MCF-7 proliferation assay (14C-thymidine), antagonist mode; assay type: cell-based
Procedure: MCF-7 breast adenocarcinoma cells (ATCC HTB 22) are maintained in MEM (minimal essential medium, phenol red-free, Gibco BRL) supplemented with 10% fetal bovine serum (FBS) (V/V), L-glutamine (2 mM), sodium pyruvate (1 mM), HEPES ((N-[2-hydroxyethyl]piperazine-N′-[2-ethanesulfonic acid]10 mM}, non-essential amino acids (0.1 mM) and Penicillin Streptomycin(IX). Seven days prior to assay, MCF-7 cells are switched to assay media which is the same as maintenance medium except supplemented with 10% dextran-coated charcoal-stripped fetal bovine serum (DCC-FBS) assay medium in place of 10% FBS. MCF-7 cells are removed from flasks using 10× Trypsin EDTA (phenol red free, Gibco BRL) and diluted to 1× in (Ca++/Mg++ free HBSS (phenol red-free). Cells are adjusted to 80,000 cells/ml in assay medium. […] For each of the agonist plates, a basal level (media), and a maximum stimulated level (with 1 μM E2) is determined. For each of the antagonist plates, a basal level (media) and a E2 (10 pM) alone control is determined. […] The plates are incubated overnight in the same incubator and then counted on the Wallac Microbeta counter. […] For the agonist mode, an EC50 and percent of maximum E2 stimulation and concentration of maximum stimulation is calculated. […]

[4] = tested on: Ishikawa human endometrial tumor cells; assay: Ishikawa cell alkaline phosphatase (PNPP) assay, antagonist mode; assay type: cell-based
Description: Ishikawa human endometrial tumor cells are maintained in MEM (minimum essential medium, with Earle's salts and L-Glutamine, Gibco BRL, Gaithersburg, Md.), supplemented with 10% fetal bovine serum (FBS) (V/V), (Gibco BRL). One day prior to assay, growth media is changed to assay medium, DMEM/F-12 (3:1) (Dulbecco's Modified Eagle Medium: Nutrient Mixture F-12, 3:1 Mixture, phenol red-free, Gibco BRL) supplemented with 5% dextran coated charcoal stripped fetal bovine serum (DCC-FBS) (Hyclone, Logen, UT), L-Glutamine (2 mM), MEM sodium pyruvate (1 mM), HEPES (N-[2-hydroxyethyl]piperazine-N′-[2-ethanesulfonic acid]2 mM) all from Gibco BRL). After an overnight incubation, ishikawa cells are rinsed with Dulbecco's Phosphate Buffered Saline (1×) (D-PBS) without Ca^+2 and Mg^+2 (Gibco BRL), and trypsinized by a 3 minute incubation with 0.25% Trypsin/EDTA, phenol red-free (Gibco BRL). Cells are resuspended in assay medium and adjusted to 250,000 cells/ml. […] After a 20-minute incubation, plates are read on a spectophotometer at 405 nm. […] For the agonist mode, a % efficacy for each compound is calculated versus the response to Tamoxifen. For the antagonist mode, a % efficacy for each compound is calculated versus E2 (1 nM) alone.

T2 sequence (Q92731 whole entry): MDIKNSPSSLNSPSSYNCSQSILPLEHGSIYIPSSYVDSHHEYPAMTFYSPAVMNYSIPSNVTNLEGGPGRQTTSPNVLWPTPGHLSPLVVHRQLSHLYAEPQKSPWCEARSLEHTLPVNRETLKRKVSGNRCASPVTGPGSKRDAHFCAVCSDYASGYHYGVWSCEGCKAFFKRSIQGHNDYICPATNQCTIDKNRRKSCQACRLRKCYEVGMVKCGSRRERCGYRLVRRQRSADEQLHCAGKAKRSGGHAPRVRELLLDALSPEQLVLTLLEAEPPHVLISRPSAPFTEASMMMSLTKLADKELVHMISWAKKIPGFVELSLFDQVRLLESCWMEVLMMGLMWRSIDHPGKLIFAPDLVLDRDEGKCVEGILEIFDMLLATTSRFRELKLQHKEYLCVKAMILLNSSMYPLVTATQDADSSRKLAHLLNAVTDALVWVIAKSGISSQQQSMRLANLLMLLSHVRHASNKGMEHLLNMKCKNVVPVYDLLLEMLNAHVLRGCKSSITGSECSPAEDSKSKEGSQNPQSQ

## COc1ccc(-c2ccc3cc(O)ccc3c2Oc2ccc(OCCCC[S+]([O-])CCCC(F)(F)C(F)(F)F)cc2)cc1 (stereo not drawn) [Example 2, 6-(4-Methoxy-phenyl)-5-{4-[4-(4,4,5,5,5-pentafluoro-pentane-sulfinyl)-butoxy]-phenoxy}-naphthalen-2-ol]
[1]
  Ki: 0.3 nM
[2]
  Ki: 0.2 nM
[3]; 10 pM E2, % inhibition @ 1 μM
  MCF-7 Antag. % Eff.: 86%
[3]; Homo sapiens, MCF7, 10 pM E2, read-out: MCF-7 IC 50
  IC50: 2.5 nM
[4]; % efficacy versus E2 (1 nM) alone
  Ishikawa Antag. % Eff.: 100%
[4]; Homo sapiens, Ishikawa, E2 1 nM, read-out: Ishikawa IC 50
  IC50: 6.8 nM
